Measured values published in US10030225B2, “Cell culture media” (Merck Patent GmbH, priority 2012, dated 2018).
Structures can show the parent of a compound that is named as a salt.

Tests used:
[1] = Solubility in water; details: for solubility (in words): comparison with tyrosine, refers to table 1; for solubility at 20° C. / solubility at 25° C. / solubility at 30° C.: in water
[2] = test system: Recombinant CHO cells; experiment: Fed batch process with neutral pH feed containing phospho-Tyr salts, 30 mL spin tubes; format: cell-based; details: 30 mM in feed at pH 7.0; control tyrosine 2Na+ and Cysteine in separate feed at pH 11
Protocol: FIGS. 5 and 6 show the viable cell density and IgG concentration over time in a fed batch process. Recombinant CHO cells are grown in fully chemically defined basal media and a feed containing phospho-Tyr salts at pH 7.0 is added on day 3; 5, 7 and 9 (addition of % v/v of 3%; 6% 6% 6%). […]. In these cases, Cysteine is still added as a separate feed at pH 11.
The process is performed in 30 mL spin tubes at 37° C., 5% CO2, agitation 320 rpm. For control, according to the state of the art, tyrosine 2Na+ and Cysteine are solubilized at pH 11 in a separate feed and added at day 3; 5; 7; 9 in %(V/V) of 0.3%, 0.6%, 0.6% and 0.6%.
The glucose concentration is measured every day and adjusted accordingly to maintain a concentration>2 g/L

[3] = test system: cells; experiment: Batch experiment in chemically defined medium where tyrosine was replaced by PTyr salts; format: cell-based
Source text: Batch experiment in chemically defined medium where tyrosine was replaced by PTyr salts. PTyr means (S)-2-Amino-3-(4-phosphonooxy-phenyl)-propionic-acid salt.

[4] = test system: Recombinant CHO cells; experiment: Fed batch process with feed containing S-sulfocysteine and PTyr 2Na+ at pH 7.0, 1.2 L bioreactors; format: cell-based; details: main feed pH 7.0, in combination with PTyr 2Na+; control tyrosine 2Na+ and Cysteine at pH 11
Protocol: FIGS. 7 and 8 show the viable cell density and IgG concentration over time in a fed batch process. Recombinant CHO cells are grown in fully chemically defined basal media and a feed containing both S-sulfocysteine and PTyr 2Na+ at pH 7.0. Feed is added on day 3; 5, 7, 9 and 14 (addition of % v/v of 3%; 6% 6% 6%, 3%). The process is performed in 1.2 L bioreactors at 37° C., pH 7.0, 50% dissolved oxygen, agitation 140 rpm. For control, according to the state of the art, tyrosine 2Na+ and Cysteine are solubilized at pH 11 in a separate feed and added at day 3; 5; 7; 9, 14 in %(V/V) of 0.3%, 0.6%, 0.6%, 0.6%, 0.3%. The glucose concentration is measured every day and adjusted accordingly to maintain a concentration>2 g/L

[5] = test system: cells; experiment: Batch experiment in chemically defined medium where Cysteine was replaced by S-sulfocysteine sodium salt; format: cell-based; details: 1.5 and 3 mM, equivalent concentration to Cysteine
Protocol: Batch experiment in chemically defined medium where Cysteine was replaced by S-sulfocysteine sodium salt (equivalent concentration). The CDM powder used as basis was depleted in Cysteine and Cystine and supplemented during reconstitution with Cysteine for the control conditions (1.5 and 3 mM) or with S-sulfocysteine sodium salt for the test conditions (1.5 and 3 mM).

## N[C@@H](Cc1ccc(OP(=O)([O-])[O-])cc1)C(=O)O.[Na+].[Na+] [D4]
[1]
  solubility (in words): very good solubility
  solubility at 20° C.: 9.8%
  solubility at 25° C.: 10.1%
  solubility at 30° C.: 9.2%
[2]
  impact on growth (viable cell density): no negative impact
  impact on titer (IgG concentration): no negative impact

## (S)-2-Amino-3-(4-phosphonooxy-phenyl)-propionic-acid salt [PTyr]
[3]; PTyr 4.5 mM in the CDM versus 1 mM tyrosine in the control
  maximum viable cell density versus control: even higher
[3]; PTyr 4.5 mM in the CDM versus control
  extended growth: 2 days
[3]; PTyr at the same concentration as Tyrosine in the medium (1 mM in the control)
  cell growth: cells didn't grow

## N[C@@H](Cc1ccc(OP(=O)([O-])O)cc1)C(=O)O.[Na+] [D3]
[1]
  solubility (in words): higher solubility
  solubility at 20° C.: 5.5%
  solubility at 25° C.: 5.3%
  solubility at 30° C.: 11.4%

## N[C@@H](Cc1ccc(OP(=O)(O)O)cc1)C(=O)O [PTyr Magnesium salt, (S)-2-Amino-3-(4-phosphonooxy-phenyl)-propionic-acid 2:1-magnesium salt]
[2]
  impact on growth (viable cell density): no negative impact
  impact on titer (IgG concentration): no negative impact

## N[C@@H](Cc1ccc(OP(=O)([O-])O)cc1)C(=O)O.[K+] [PTyr Potassium salt, (S)-2-Amino-3-(4-phosphonooxy-phenyl)-propionic-acid mono potassium salt]
[2]
  impact on growth (viable cell density): no negative impact
  impact on titer (IgG concentration): no negative impact

## N[C@H](CSS(=O)(=O)[O-])C(=O)[O-].[Na+].[Na+] [S-sulfocysteine sodium salt, (S)-2-amino-3-sulfosulfanylpropanoic acid sodium salt]
[4]
  growth (viable cell density) in comparison to the control: extended growth
  titer (IgG concentration) in comparison to the control: significant increase
[5]
  cell growth versus Cysteine control: comparable growth
